Entries after “also recorded” stand apart in the source; their conditions may differ.
What was measured:
[1] = test system: ECC-1 endometrial cancer cells; assay: ECC-1 cell proliferation assay ([3H]thymidine incorporation into DNA); type: cell-based, human; conditions: for inhibition of estradiol-induced cell proliferation / inhibition of genistein-induced cell proliferation: FIG. 4
Method: The human endometrial cancer (estrogen dependent) cell line ECC-1 was developed by Dr. […] University, PA, U.S.A, and generously provided to us by Dr. R. Oregan, Norwestern University, Chicago, Ill., U.S.A. Human mammary cancer cell lines MCF-7 (estrogen dependent) and MDA-231 (hormone independent) were obtained from the American Type Culture Collection (Rockville, Md., U.S.A.). Cells were cultured in DMEM containing penicillin (100 U/ml), streptomycin (0.1 mg/ml)) nystatin (12.5 μg/ml), insulin (0.6 μg/ml), and 10% FCS. Cells were stripped of endogenous steroids according to the procedure of Vignon et al. (1987, Biochem. Biophys. Res. Comm., 146:1502-8) by sucessive passages in medium without phenol red containing 10% and then 3% of charcoal-stripped FCS. Cells were seeded into 96 multiwell plates (5,000 cells per well) in DMEM containing 3% of charcoal-stripped FCS. After one day the medium was changed to one containing the solubilized carotenoid or THF alone. The medium was changed daily to ensure a continuous supply of carotenoid. After incubation, the number of cells and the rate of cell proliferation were estimated by the incorporation of [^3H]thymidine incorporation into cellular DNA, as described in U.S. Pat. No. 5,827,900. Cell growth was also measured by direct cell counting with a Coulter counter after trypsinization and dilution in Isotone-II (Coulter Electronics, Luton, England). A good correlation was found between the two methods. ECC-1 cells were incubated with increasing concentrations of the isoflavones genistein and daidzein, the two primary isoflavones in soy products, and with soy extract. Cell proliferation after three days was measured by [^3H]thymidine incorporation into DNA (FIG. 1, panel A). […] ECC-1 cells were also incubated with a single high concentration (40 μM) of each of genistein, daidzein and soy extract and cell proliferation was assayed daily over the course of three days.

[2] = test system: MCF-7 mammary cancer cells (estrogen dependent); assay: MCF-7 cell proliferation assay ([3H]thymidine incorporation); type: cell-based, human; conditions: for inhibition of phytoestrogen-induced cell proliferation: genistein 4 μM
Method: (§1) The human endometrial cancer (estrogen dependent) cell line ECC-1 was developed by Dr. P. G. Satyaswaroop, Pennslyvania State University, PA, U.S.A, and generously provided to us by Dr. R. Oregan, Norwestern University, Chicago, Ill., U.S.A. Human mammary cancer cell lines MCF-7 (estrogen dependent) and MDA-231 (hormone independent) were obtained from the American Type Culture Collection (Rockville, Md., U.S.A.).
(§2) Cells were cultured in DMEM containing penicillin (100 U/ml), streptomycin (0.1 mg/ml)) nystatin (12.5 μg/ml), insulin (0.6 μg/ml), and 10% FCS. Cells were stripped of endogenous steroids according to the procedure of Vignon et al. (1987, Biochem. Biophys. Res. Comm., 146:1502-8) by sucessive passages in medium without phenol red containing 10% and then 3% of charcoal-stripped FCS. Cells were seeded into 96 multiwell plates (5,000 cells per well) in DMEM containing 3% of charcoal-stripped FCS. After one day the medium was changed to one containing the solubilized carotenoid or THF alone. The medium was changed daily to ensure a continuous supply of carotenoid.
(§3) After incubation, the number of cells and the rate of cell proliferation were estimated by the incorporation of [^3H]thymidine incorporation into cellular DNA, as described in U.S. Pat. No. 5,827,900. Cell growth was also measured by direct cell counting with a Coulter counter after trypsinization and dilution in Isotone-II (Coulter Electronics, Luton, England).
The comparative effects of estradiol and genistein supplementation on the proliferation of the hormone-dependent cell lines MCF-7 mammary cancer and ECC-1 endometrial cancer were examined (FIG. 2).
MCF-7 mammary cancer cells were stimulated by genistein (4 μM) and test cultures were additionally supplemented with lycopene or phytoene or a combination of both, at either physiological concentrations (FIG. 6 panel A) or at about one order of magnitude greater than the physiological concentrations (FIG. 6 panel B).

[3] = test system: MDA-231 mammary cancer cells (hormone independent); assay: MDA-231 cell proliferation assay ([3H]thymidine incorporation); type: cell-based, human; conditions: IGF-1 30 nM
Method: as §1, §2
as §3, with “England). A good correlation was found between the two methods.” for “England).”

[4] = test system: estrogen receptor-positive human breast cancer cell lines; conditions: approximately 0.1 to 10 μM; not in estrogen receptor negative lines; cited from earlier work
[5] = 40 μM, after one day of incubation, FIG. 1 panel B
[6] = 0.4 and 4 μM, three days, FIG. 1 panel A
[7] = higher, non-physiological concentrations (≧10 μM), three days, FIG. 1 panel A
[8] = carotenoids at high, non-physiological concentrations (about one order of magnitude above physiological), FIG. 6 panel B
[9] = carotenoids at physiological concentrations, FIG. 6 panel A
[10] = lycopene 3 to 5 μM, three days, FIG. 2

O=c1c(-c2ccc(O)cc2)coc2cc(O)ccc12 [daidzein, reference compound]
effect on cell proliferation [1, 5]: significantly increases cell proliferation; also recorded: stimulated cell proliferation | effect on cell proliferation [1, 6]: significant increase in cell proliferation rate; also recorded: stimulated cell proliferation | effect on cell proliferation [1, 7]: only stimulatory

IGF-1: Human recombinant IGF-1 purchased from GroPep
effect on cell growth ([2]; IGF-1 30 nM, FIG. 3 panel A): significantly stimulates cell growth | effect on cell growth ([3]; FIG. 3 panel B): significantly stimulates cell growth

CC1=C(/C=C/C(C)=C/C=C/C(C)=C/C=C/C=C(C)/C=C/C=C(C)/C=C/C2=C(C)CCCC2(C)C)C(C)(C)CCC1 [beta-carotene]
inhibition of estradiol-induced cell proliferation ([1]; estradiol 10 nM): effectively inhibited | inhibition of genistein-induced cell proliferation ([1]; genistein 1 μM): effective inhibitors; also recorded: effectively inhibited

COc1ccc(-c2coc3cc(O)cc(O)c3c2=O)cc1 [biochanin A]
effect on cell proliferation [4]: induce cell proliferation

O=c1cc(-c2ccc(O)c(O)c2)oc2cc(O)cc(O)c12 [luiolin]
effect on cell proliferation [4]: induce cell proliferation

CC(C)=CCC/C(C)=C/CC/C(C)=C/CC/C(C)=C/C=C/C=C(\C)CC/C=C(\C)CC/C=C(\C)CCC=C(C)C [phytoene]
inhibition of phytoestrogen-induced cell proliferation [2, 8]: effective in significantly inhibiting | inhibition of phytoestrogen-induced cell proliferation [2, 9]: not effective | inhibition of genistein-induced cell proliferation ([1]; genistein 1 μM): effective inhibitors

O=c1oc2cc(O)ccc2c2oc3cc(O)ccc3c12 [counestrol]
effect on cell proliferation [4]: induce cell proliferation

CC(C)=CCC/C(C)=C/C=C/C(C)=C/C=C/C(C)=C/C=C/C=C(C)/C=C/C=C(C)/C=C/C=C(\C)CCC=C(C)C [lycopene]
inhibition of phytoestrogen-induced cell proliferation [2, 8]: effective in significantly inhibiting | inhibition of phytoestrogen-induced cell proliferation [2, 9]: only marginally effective | effect on IGF stimulation of proliferation ([2]; lycopene 3 to 5 μM, IGF-1 30 nM, FIG. 3): inhibits IGF stimulation | effect on cell proliferation stimulated by combined IGF-1 and genistein ([2]; lycopene 3 to 5 μM, genistein 0.4 to 4 μM, IGF-1 30 nM, FIG. 3 panel A): inhibits the cell proliferation | effect on basal growth [2, 10]: significantly inhibited | effect on estrogen-induced (genistein or estradiol) growth [2, 10]: substantially inhibited; also recorded: significantly inhibited | inhibition of estradiol-induced cell proliferation ([1]; estradiol 10 nM): effectively inhibited | inhibition of estradiol-induced cell proliferation, dose dependence ([1]; estradiol 10 nM, various lycopene concentrations (lowest 0.9 μM), FIG. 5): all lycopene concentrations tested were effective in inhibiting | inhibition of genistein-induced cell proliferation ([1]; genistein 1 μM): effective inhibitors; also recorded: effectively inhibited | inhibition of genistein-induced cell proliferation, dose dependence ([1]; genistein 1 μM, various lycopene concentrations (lowest 0.9 μM), FIG. 5): all lycopene concentrations tested were effective in inhibiting | effect on basal growth [1, 10]: significantly inhibited | effect on estrogen-induced (genistein or estradiol) growth [1, 10]: substantially inhibited; also recorded: significantly inhibited | cell proliferation relative to controls ([3]; lycopene 3 to 5 μM, FIG. 3): reduced to levels less than that of controls | effect on IGF stimulation of proliferation ([3]; lycopene 3 to 5 μM, FIG. 3): inhibits IGF stimulation

CC1=C(/C=C/C(C)=C/C=C/C(C)=C/C=C/C=C(C)/C=C/C=C(C)/C=C/C2=C(C)C(=O)[C@@H](O)CC2(C)C)C(C)(C)C[C@H](O)C1=O [astaxanthin]
inhibition of estradiol-induced cell proliferation ([1]; estradiol 10 nM): effectively inhibited | inhibition of genistein-induced cell proliferation ([1]; genistein 1 μM): effective inhibitors; also recorded: effectively inhibited

O=c1c(-c2ccc(O)cc2)coc2cc(O)cc(O)c12 [genistein, reference compound]
stimulatory effect of genistein in the presence of IGF-1 ([2]; genistein about 0.4 to 4 μM plus IGF-1 30 nM, compared with genistein alone, FIG. 3 panel A): significantly increases the cell proliferation rate; also recorded: further augmented | effect of hormone alone on proliferation ([2]; genistein increasing concentrations, estradiol 1 and 10 nM, FIG. 2): biphasic effects on proliferation | effect on cell proliferation [4]: induce cell proliferation | effect on cell proliferation [1, 5]: significantly increases cell proliferation; also recorded: stimulated cell proliferation | effect on cell proliferation ([1]; 40 μM, second day in culture, FIG. 1 panel B): inhibitory effects | effect on cell proliferation [1, 6]: significant increase in cell proliferation rate | effect on cell proliferation ([1]; 0.4 and 4 μM, three days, FIG. 1 panel A, listed as Genistein): stimulated cell proliferation | effect of hormone alone on proliferation ([1]; genistein increasing concentrations, estradiol 1 and 10 nM, FIG. 1/2): biphasic effects on proliferation | effect on cell proliferation [1, 7]: inhibited cell proliferation

O=c1c(O)c(-c2ccc(O)cc2)oc2cc(O)cc(O)c12 [kaempferl]
effect on cell proliferation [4]: induce cell proliferation

— patent US8669293B2, “Method and compositions for preventing hormone induced adverse effects” (Lycored Ltd., priority 2000, dated 2014)
